Laboratory results: US20060069095A1, “Azole derivatives” (priority 2004, published 2006)

Tests used:
[1] = tested on: HEK293 cells; experiment: CellTiter-Glo Luminescent Cell Viability Assay in HEK293 cells; assay type: cell-based; details: Homo sapiens, 168 h, 7 days incubation, 3 μM to 0.00015 μM
Text: CellTiter-Glo™ Assay in HEK293 Cells
The CellTiter-Glo™ Luminescent Cell Viability Assay (Promega) is a homogeneous method of determining the number of viable cells in culture based on quantitation of the ATP present, which signals the presence of metabolically active cells.
HEK293 cells (human embryonic kidney cell line transformed by Adenovirus 5 fragments, ATCC-No. CRL 1573) were cultivated in Dulbecco's Modified Eagle Medium (DMEM) with Glutamax™ (Invitrogen, 31966-021), 5% Fetal Calf Serum (FCS, Sigma Cat-No. F4135 (FBS)), 100 Units/ml penicillin/100 μg/ml streptomycin (=Pen/Strep from Invitrogen Cat. No. 15140)., For the assay the cells were seeded in 384 well plates, 5000 cells per well, in the same medium. The next day the test compounds were added in various concentrations ranging from 3 μM to 0.00015 μM (10 concentrations, 1:3 diluted). After 7 days the CellTiter-Glo™ assay was done according to the instructions of the manufacturer (CellTiter-Glo™ Luminescent Cell Viability Assay, from Promega). In brief: the cell-plate was equilibrated to room temperature for approximately 30 minutes and than the CellTiter-Glo™ reagent was added. The contents were carefully mixed for 15 minutes to induce cell lysis. After 45 minutes the luminescent signal was measured in Victor 2, (scanning multiwell spectrophotometer, Wallac).
Medium: Dulbecco's Modified Eagle Medium (DMEM) with Glutamax™ (Invitrogen, 31966-021), 5% Fetal Calf Serum (FCS, Sigma Cat-No. F4135 (FBS)), Pen/Strep (Invitrogen Cat. No. 15140).
Incubate 24 h at 37° C., 5% CO2
2nd Day: Induction (Substance Testing):
In general the dilution steeps are 1:3 • a) Add 8 μl of 10 mM stock solution of compound to 72 μl DMSO • b) dilute 9×1:3 (always 30 μl to 60 μl DMSO) in this DMSO dilution row (results in 10 wells with concentrations from 1000 μM to 0.06 μM) • c) dilute each concentration 1:4.8 (10 μl compound dilution to 38 μl medium) • d) dilute each concentration 1:10 (10 μl compound dilution to 90 μl medium) • e) add 10 μl of every concentration to 60 μl medium in the cell plate • resulting in final concentration of DMSO: 0.3% in every well • and resulting in final concentration of compounds from 3 μM to 0.00015 μM • Incubate 168 h (7 days) at 37° C., 5% CO2
Analysis: • Add 30 μl CellTiter-Glo™ Reagent/well, • shake 15 minutes at room temperature • incubate further 45 minutes at room temperature without shaking.
Measurement: • Victor 2 scanning multiwell spectrophotometer (Wallac), Luminescence mode • Determine IC50 with XL-fit (XLfit software (ID Business Solution Ltd., Guilford, Surrey, UK)).

[2] = tested on: A549 cells; experiment: MTT assay in A549 cells; assay type: cell-based, human; details: Homo sapiens, 120 h, 5 days incubation, 3 μM to 0.15 nM
Method: To further show the activity of the compounds according to this invention, their effects on a […] was evaluated using a standard MTT-assay. MTT (3-(4,5-dimethylthiazol-2-yl)-2,5-diphenyl tetrazolium bromide) is widely used for the quantitative determination of cytotoxic effects or in vitro chemosensitivity of tumor cells. The assay is based on the cleavage of the yellow tetrazolium salt (MTT) to purple formazan crystals by metabolic active cells. For details, see Rubinstein, L. V., et al., J. Natl. Cancer Inst. 82 (1990) 1113-1118.
A549 cells (human lung carcinoma cell line ATTC-No. CCL-185) were cultivated in RPMI (Roswell Park Memorial Institute) 1640 medium with GlutaMAX™ I (Invitrogen, Cat-No. 61870-010), 2,5% Fetal Calf Serum (FCS, Sigma Cat-No. F4135 (FBS)); 100 Units/ml penicillin/100 μg/ml streptomycin (=Pen/Strep from Invitrogen Cat. No. 15140). For the assay the cells were seeded in 384 well plates, 900 cells per well, in the same medium. The next day compounds (dissolved 10 mM in dimethylsulfoxide (DMSO)) were added in various concentrations ranging from 3 μM to 0.15 nM (10 concentrations, 1:3 diluted). After 5 days MTT assay was done mainly according to the instructions of the manufacturer (Cell proliferation kit I, MTT, from Roche Molecular Biochemicals). In brief: MTT labeling reagent (3-(4,5-dimethylthiazol-2-yl)-2,5-diphenyltetrazolium bromide (MTT)) was added to a final concentration of 0.5 mg/ml, added and incubated for 4 hrs at 37° C., 5% CO2. During this incubation time purple formazan crystals are formed. After addition of the solubilization solution (20% Sodium Dodecyl Sulfate (SDS) in 0.02 M HCl) the plates were incubated overnight at 37° C., 5% CO2. After careful mixing plates were measured in Victor 2 scanning multiwell spectrophotometer (Wallac) at 550 nm.
A decrease in number of living cells results in a decrease in the total metabolic activity in the sample. The decrease directly correlates to the amount of purple color resulting from the solubilization of the purple formazan crystals.
• A549: 900 cells in 60 μl per well of 384 well plate (Greiner) • Medium: RPMI 1640, 2.5% FCS, glutamine, Pen/Strep. • Incubate 1 day at 37° C.
Induction: • Dilution of compound in DMSO: 3 μl 10 mM+27 μl DMSO, dilute 1:3 • Add 2 μl of compound dilution row to 95 μl of medium • Add 10 μl of compound dilution to 60 μl medium in test plate resulting in 0.3% DMSO per well • Incubate 120 h (5 days) at 37° C., 5% CO2
Analysis: • Add 7 μl MTT (5 mg/7 ml/well), incubate 4 h at 37° C. • Add 30 μl lysis buffer (20% SDS, 0.04 N HCl) per well • Incubate overnight at 37° C.
Measurement: • Victor 2 scanning multiwell spectrophotometer (Wallac) at 550 nm
Determination of IC50 was done using XL-fit (XLfit software (ID Business Solution Ltd., Guilford, Surrey, UK)).

Work on FC(F)(F)Oc1ccc(/C=C/c2nc(COc3ccc(CCCCc4c[nH]nn4)cc3)co2)cc1 [Example 1.1, 4-[4-(4-{2-[(E)-2-(4-Trifluoromethoxy-phenyl)-vinyl]-oxazol-4-ylmethoxy}-phenyl)-butyl]-1H-[1,2,3]triazole] yielded an IC50 [1] of 128 nM and an IC50 [2] of 200 to 1000 nM.

In the case of OCCn1nnc(CCCCc2ccc(OCc3coc(C=Cc4ccc(OC(F)(F)F)cc4)n3)cc2)n1 [Example 2.5, 2-{5-[4-(4-{2-[2-(4-Trifluoromethoxy-phenyl)-vinyl]-oxazol-4-ylmethoxy}-phenyl)-butyl]-tetrazol-2-yl}-ethanol], the IC50 [2] is reported as 5 to 200 nM.

Cn1nnnc1CCCCc1ccc(OCc2coc(/C=C/c3ccc(OC(F)(F)F)cc3)n2)cc1 [Example 2.2, Methyl-5-[4-(4-{2-[(E)-2-(4-trifluoromethoxy-phenyl)-vinyl]-oxazol-4-ylmethoxy}-phenyl)-butyl]-1H-tetrazole] gave an IC50 [1] of 5 to 250 nM and an IC50 [2] of 17 nM.

Molecule OCCn1nnnc1CCCCc1ccc(OCc2coc(C=Cc3ccc(OC(F)(F)F)cc3)n2)cc1 [Example 2.4, 2-{5-[4-(4-{2-[2-(4-Trifluoromethoxy-phenyl)-vinyl]-oxazol-4-ylmethoxy}-phenyl)-butyl]-tetrazol-1-yl}-ethanol] has an IC50 [1] of 250 to 1500 nM and an IC50 [2] of 200 to 1000 nM.

N#CCn1ncc(CCCCc2ccc(OCc3coc(/C=C/c4ccc(OC(F)(F)F)cc4)n3)cc2)n1 [Example 1.14, {4-[4-(4-{2-[(E)-2-(4-Trifluoromethoxy-phenyl)-vinyl]-oxazol-4-ylmethoxy}-phenyl)-butyl]-[1,2,3]triazol-2-yl}-acetonitrile] gave an IC50 [1] of 250 to 1500 nM.

OCCn1nncc1CCCCc1ccc(OCc2coc(/C=C/c3ccc(OC(F)(F)F)cc3)n2)cc1 [Example 1.7, 2-{5-[4-(4-{2-[(E)-2-(4-Trifluoromethoxy-phenyl)-vinyl]-oxazol-4-ylmethoxy}-phenyl)-butyl]-[1,2,3]triazol-1-yl}-ethanol] gave an IC50 [1] of 5 to 250 nM.

Molecule CC(C)([PH2]=O)n1cc(CCCCc2ccc(OCc3coc(/C=C/c4ccc(OC(F)(F)F)cc4)n3)cc2)nn1 [Example 1.17, 1-(Dimethyl-phosphinoylmethyl)-4-[4-(4-{2-[(E)-2-(4-trifluoromethoxy-phenyl)-vinyl]-oxazol-4-ylmethoxy}-phenyl)-butyl]-1H-[1,2,3]triazole] has an IC50 [1] of 250 to 1500 nM.

For OCCn1cc(CCCCc2ccc(OCc3coc(/C=C/c4ccc(OC(F)(F)F)cc4)n3)cc2)nn1 [Example 1.6, 2-{4-[4-(4-{2-[(E)-2-(4-Trifluoromethoxy-phenyl)-vinyl]-oxazol-4-ylmethoxy}-phenyl)-butyl]-[1,2,3]triazol-1-yl}-ethanol], the IC50 [1] was 166 nM.

CC(C)([PH2]=O)n1ncc(CCCCc2ccc(OCc3coc(/C=C/c4ccc(OC(F)(F)F)cc4)n3)cc2)n1 [Example 1.18, 2-(Dimethyl-phosphinoylmethyl)-4-[4-(4-{2-[(E)-2-(4-trifluoromethoxy-phenyl)-vinyl]-oxazol-4-ylmethoxy}-phenyl)-butyl]-2H-[1,2,3]triazole] gave an IC50 [1] of 5 to 250 nM.

Molecule FC(F)(F)Oc1ccc(/C=C/c2nc(COc3ccc(CCCCc4cnn(CCN5CCOCC5)n4)cc3)co2)cc1 [Example 1.19, 4-(2-{4-[4-(4-{2-[(E)-2-(4-Trifluoromethoxy-phenyl)-vinyl]-oxazol-4-ylmethoxy}-phenyl)-butyl]-[1,2,3]triazol-2-yl}-ethyl)-morpholine] has an IC50 [1] of 5 to 250 nM.

Work on N#CCn1nncc1CCCCc1ccc(OCc2coc(/C=C/c3ccc(OC(F)(F)F)cc3)n2)cc1 [Example 1.16, {5-[4-(4-{2-[(E)-2-(4-Trifluoromethoxy-phenyl)-vinyl]-oxazol-4-ylmethoxy}-phenyl)-butyl]-[1,2,3]triazol-1-yl}-acetonitrile] yielded an IC50 [1] of 250 to 1500 nM.

Cn1cc(CCCCc2ccc(OCc3coc(/C=C/c4ccc(OC(F)(F)F)cc4)n3)cc2)nn1 [Example 1.4, 1-Methyl-4-[4-(4-{2-[(E)-2-(4-trifluoromethoxy-phenyl)-vinyl]-oxazol-4-ylmethoxy}-phenyl)-butyl]-1H-[1,2,3]triazole] showed an IC50 [1] of 5 to 250 nM and an IC50 [2] of 5 to 200 nM.

With Cn1ncc(CCCCc2ccc(OCc3coc(/C=C/c4ccc(OC(F)(F)F)cc4)n3)cc2)n1 [Example 1.3, 2-Methyl-4-[4-(4-{2-[(E)-2-(4-trifluoromethoxy-phenyl)-vinyl]-oxazol-4-ylmethoxy}-phenyl)-butyl]-2H-[1,2,3]triazole] the IC50 [2] was 5 to 200 nM.

FC(F)(F)Oc1ccc(/C=C/c2nc(COc3ccc(CCCCc4nn[nH]n4)cc3)co2)cc1 [Example 2.1, 5-[4-(4-{2-[(E)-2-(4-Trifluoromethoxy-phenyl)-vinyl]-oxazol-4-ylmethoxy}-phenyl)-butyl]-2H-tetrazole] showed an IC50 [1] of 250 to 1500 nM and an IC50 [2] of 200 to 1000 nM.

For Cn1nnc(CCCCc2ccc(OCc3coc(/C=C/c4ccc(OC(F)(F)F)cc4)n3)cc2)n1 [Example 2.3, Methyl-5-[4-(4-{2-[(E)-2-(4-trifluoromethoxy-phenyl)-vinyl]-oxazol-4-ylmethoxy}-phenyl)-butyl]-2H-tetrazole], the IC50 [2] was 5 to 200 nM.
